The values that follow come from patent US20240132467A1, “BENZIMIDAZOLE DERIVATIVES FOR TREATING RESPIRATORY DISEASE” (TMEM16A Limited, priority 2020, published 2024).

The structures appear in SMILES notation.

The test concerns the target T1, human TMEM16A (TMEM16Aabc variant) (Homo sapiens, UniProt Q5XXA6, DEL476-501).
T1 sequence (Q5XXA6 with tags, fused parts or gaps isoform Q5XXA6-5 DEL539-564): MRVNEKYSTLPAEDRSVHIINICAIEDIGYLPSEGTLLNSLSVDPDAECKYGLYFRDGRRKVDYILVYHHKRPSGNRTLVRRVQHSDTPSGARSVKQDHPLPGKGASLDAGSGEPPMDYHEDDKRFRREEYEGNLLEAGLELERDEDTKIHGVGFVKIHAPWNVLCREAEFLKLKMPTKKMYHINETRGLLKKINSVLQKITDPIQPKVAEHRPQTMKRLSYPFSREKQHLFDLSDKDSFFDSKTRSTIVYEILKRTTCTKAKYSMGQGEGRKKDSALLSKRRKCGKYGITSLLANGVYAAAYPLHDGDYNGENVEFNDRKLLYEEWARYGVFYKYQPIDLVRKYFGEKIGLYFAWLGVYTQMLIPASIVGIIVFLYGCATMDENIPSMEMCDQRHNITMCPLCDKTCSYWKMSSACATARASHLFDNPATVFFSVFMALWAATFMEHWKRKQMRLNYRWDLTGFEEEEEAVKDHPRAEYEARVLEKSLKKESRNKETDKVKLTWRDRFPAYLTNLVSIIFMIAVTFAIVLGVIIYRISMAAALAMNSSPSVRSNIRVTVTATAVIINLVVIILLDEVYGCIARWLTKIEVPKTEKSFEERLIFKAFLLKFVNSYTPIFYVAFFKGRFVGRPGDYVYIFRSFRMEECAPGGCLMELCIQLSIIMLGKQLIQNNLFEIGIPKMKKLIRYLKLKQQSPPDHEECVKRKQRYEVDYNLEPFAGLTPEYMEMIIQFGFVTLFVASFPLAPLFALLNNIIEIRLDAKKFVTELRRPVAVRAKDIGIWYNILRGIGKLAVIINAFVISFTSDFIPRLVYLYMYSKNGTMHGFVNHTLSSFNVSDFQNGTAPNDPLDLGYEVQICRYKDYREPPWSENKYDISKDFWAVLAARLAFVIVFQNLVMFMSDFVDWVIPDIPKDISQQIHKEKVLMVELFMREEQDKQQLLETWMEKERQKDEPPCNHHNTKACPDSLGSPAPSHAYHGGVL
Kind of test: Automated whole-cell patch clamp (Qpatch) TMEM16A potentiator assay in FRT cells stably expressing human TMEM16A. The class given is cell-based. Conditions: for activation at 3.33 µM: 3.33 μM test compound, percentage increase of baseline TMEM16A current at +70 mV, intracellular calcium at EC20, read-out: % Potentiation @ 3.33 μM Avg; for EC50: cumulative concentration response, 5 min per concentration, whole-cell patch clamp. How it is done: Automated whole-cell patch clamp assay to detect TMEM16A activity in recombinant cells Cell culture and preparation
Fisher rat thyroid (FRT) cells stably expressing human TMEM16A (TMEM16Aabc variant; Dr Luis Galietta, Insituto Giannina, Italy) were cultured in T-75 flasks in Hams F-12 media with Coon's modification (Sigma) supplemented with 10% (v/v) foetal bovine serum, penicillin-streptomycin (10,000 U/mL/10000 μg/mL), G-418 (750μg/mL), L-glutamine (2 mM) and sodium bicarbonate solution (7.5% v/v). At —90% confluence cells were harvested for experiments by detachment with a 2:1 (v/v) mixture of Detachin (BMS Biotechnology) and 0.25% (w/v) trypsin-EDTA. Cells were diluted to a density of 3.5-4.5×10^6 cells/mL with media consisting of CHO-S-SFM II (Sigma), 25 mM HEPES (Sigma) and Soy bean trypsin inhibitor (Sigma).
Whole-Cell Patch Clamp Recording
FRT-TMEM16A cells were whole-cell patch clamped using an automated planar patch clamp system (Qpatch, Sophion). Briefly, once high resistance (GOhm) seals were established between the cells and the planar recording array the patch was ruptured using suction pulses to establish the whole-cell recording configuration of the patch clamp technique. The assay employed the following solutions (all reagents Sigma):
Intracellular solution (mM): N-methyl-D-glucamine 130, CaCl2 18.2, MgCl2 1, HEPES 10, EGTA 10, BAPTA 20, Mg-ATP 2, pH 7.25, 325mOsm with sucrose.
Extracellular solution (mM): N-methyl-D-glucamine 130, CaCl2 2, MgCl2 1, HEPES 10, pH 7.3, 320 mOsm with sucrose.
The intracellular solution buffers intracellular calcium at levels required to give —20% activation of the maximal TMEM16A mediated current (EC20 for calcium ions). Cells were voltage clamped at a holding potential of -70mV and a combined voltage step (to +70 mV)/ramp (−90 my to +90 mV) was applied at 0.05 Hz. After a period of current stabilisation test compounds, solubilised in 100% (v/v) DMSO and subsequently diluted into extracellular solution, were applied to generate a cumulative concentration response curve. Each concentration of test compound was incubated for 5 minutes before addition of the next concentration. After the final concentration was tested a supramaximal concentration of either a known active positive modulator or the TMEM16A inhibitor, CaCCinhA01 (Del La Fuente et al, 2008) was added to define the upper and lower limits of the assay.
Compound activity was quantified by measuring the increase in current upon compound addition and expressing this as a percentage increase of baseline TMEM16A current level. Percentage increases in current were determined for each concentration and the data plotted as a function of concentration using either the Qpatch software or Graphpad Prism v6.05 providing the concentration which gave 50% of its maximal effect (EC50) and maximum efficacy (percentage of baseline increase).
In FIG. 1, IBL equals baseline current, km equals the peak current during test compound concentration 1 incubation period and so on.
Peak TMEM16A current at +70mV was plotted as a function of time over the assay period. Baseline current (IBL) was measured after a period of stabilisation. The increase in current for each compound addition was determined by taking the peak current during the incubation period and subtracting the current from the previous recording period and then expressing this as a percentage of the baseline current. For test compound concentration 1 in FIG. 1 this is:
For each additional concentration tested the increase in current was determined by subtracting the current from the previous incubation period and normalising the baseline value—for test concentration 2 in FIG. 1 this is:
The values for each test concentration were plotted as a cumulative function of concentration e.g. for test concentration two this would be the sum of the peak changes measured during concentration one plus concentration two.

On to `O=C(CC1CCCCC1)Nc1ccc2[nH]c(Cc3ccccc3)nc2c1` [Example 1.1, N-(2-Benzyl-1H-benzimidazol-5-yl)-2-cyclohexyl-acetamide], for which the activation at 3.33 µM worked out at 127% and the EC50 turned out to be 0.25 µM.
For `O=C(NCC1CCCCC1)c1ccc2[nH]c(Cc3ccccc3)nc2c1` [Example 1.2, 2-Benzyl-N-(cyclohexylmethyl)-1H-benzimidazole-5-carboxamide], in that order: 111% and 0.225 µM.
For `O=C(NCC12CC3CC(CC(C3)C1)C2)c1ccc2[nH]c(Cc3ccccc3)nc2c1` [Example 1.2.1, N-(1-Adamantylmethyl)-2-benzyl-1H-benzimidazole-5-carboxamide], the activation at 3.33 µM was 146% and the 50% effective concentration (EC50) is 0.441 µM.
In the case of `CC1(CNC(=O)c2ccc3[nH]c(Cc4ccccc4)nc3c2)CCCC1` [Example 1.2.2, 2-Benzyl-N-I(1-methylcyclopentyl)methylj-1H-benzimidazole-5-carboxamide], the activation at 3.33 µM worked out at 144% and the 50% effective concentration (EC50) amounted to 0.203 µM.
For `C[C@@H](NC(=O)c1ccc2[nH]c(Cc3ccccc3)nc2c1)C1CCCCC1` [Example 1.2.3, 2-Benzyl-N-[(1R)-1-cyclohexylethyl]-1H-benzimidazole-5-carboxamide], in that order: 153% and 0.792 µM.
For `CCC(C)(C)c1nc2ccc(C(=O)NCC3CCCCCC3)cc2[nH]1` [Example 1.3, N-(Cycloheptylmethyl)-2-(1,1-dimethylpropyl)-3H-benzimidazole-5-carboxamide], in that order: 78.5% and 0.563 µM.
For `O=C(NCC1CCCCCC1)c1ccc2[nH]c(CC3(O)CCCCC3)nc2c1` [Example 1.3.1, N-(Cycloheptylmethyl)-2-[(1-hydroxycyclohexyl)methyl]-1H-benzimidazole-5-carboxamide], in that order: 135% and 0.425 µM.
As for `O=C(NCC1CCCCCC1)c1ccc2[nH]c(C(CO)c3ccccc3)nc2c1` (stereo not shown) [Example 1.3.2, N-(Cycloheptylmethyl)-2-(2-hydroxy-1-phenyl-ethyl)-1H-benzimidazole-5-carboxamide], the activation at 3.33 µM amounted to 92.9% and the EC50 was 0.581 µM.
For `O=C(NCC1CCCCC1)c1ccc2nc(Cc3cccc(O)c3)[nH]c2c1` [Example 1.4, N-(Cyclohexylmethyl)-2-[(3-hydroxyphenyl)methyl]-3H-benzimidazole-5-carboxamide], in that order: 81.3% and 0.384 µM.
On to `O=C(CC12CC3CC(CC(C3)C1)C2)Nc1ccc2[nH]c(Cc3cccc(O)c3)nc2c1` [Example 1.5, 2-(1-Adamantyl)-N-12-[(3-hydroxyphenyl)methyl]-1H-benzimidazol-5-yljacetamide], for which the activation at 3.33 µM amounted to 162% and the EC50 is 1.08 µM.
Consider `CC1(CC(=O)Nc2ccc3[nH]c(Cc4cccc(O)c4)nc3c2)CCCCC1` [Example 1.5.1, N-[2-[(3-hydroxyphenyl)methyl]-1H-benzimidazol-5-yl]-2-(1-methylcyclohexyl) acetamide], for which the activation at 3.33 µM was 105% and the EC50 came out at 0.222 µM.
For `O=C(CC1CCCCCC1)Nc1ccc2[nH]c(Cc3cccc(O)c3)nc2c1` [Example 1.5.2, 2-Cycloheptyl-N-[2-[(3-hydroxyphenyl)methyl]-1H-benzimidazol-5-yl]acetamide], in that order: 136% and 0.227 µM.
For the compound `O=C(CC1CCCCC1)Nc1ccc2[nH]c(Cc3cccc(O)c3)nc2c1` [Example 1.5.3, 2-Cyclohexyl-N-12-[(3-hydroxyphenyl)methyl]-1H-benzimidazol-5-yljacetamide], the activation at 3.33 µM turned out to be 93.1% and the 50% effective concentration (EC50) is 0.566 µM.
For `O=C(CC12CC3CC(CC(C3)C1)C2)Nc1ccc2[nH]c(Cc3ccccc3)nc2c1` [Example 1.5.4, 2-(1-Adamantyl)-N-(2-benzyl-1H-benzimidazol-5-yl)acetamide], in that order: 219% and 0.834 µM.
